Assay results taken from publication PMC10587169, “Tuning aminopolycarboxylate chelators for efficient complexation of trivalent actinides” (Scientific Reports, 2023).
Like-named read-outs stand apart in the source and are kept apart here.

Columns and labels:
[1] = Potentiometric complexometric titration; assay type: binding; conditions: for logβ101 (ML), Nd / logβ111 (MHL), Nd / logK111, Dy / logK111, Eu / logK111, Ho / logK111, La / logK111, Lu / logK111, Nd / logK111, Tb / logβ101 (ML), Dy / logβ101 (ML), Eu / logβ101 (ML), Ho / logβ101 (ML), La / logβ101 (ML), Lu / logβ101 (ML), Tb / logβ111 (MHL), Dy / logβ111 (MHL), Eu / logβ111 (MHL), Ho / logβ111 (MHL), La / logβ111 (MHL), Lu / logβ111 (MHL), Tb: potentiometry, I = 2.0 M (Na+/H+)ClO4, T = 20.0 °C; for logK111, Dy / logK111, Eu / logK111, Ho / logK111, La / logK111, Lu / logK111, Nd / logK111, Tb / logβ101 (ML), Dy / logβ101 (ML), Eu / logβ101 (ML), Ho / logβ101 (ML), La / logβ101 (ML), Lu / logβ101 (ML), Tb / logβ111 (MHL), Dy / logβ111 (MHL), Eu / logβ111 (MHL), Ho / logβ111 (MHL), La / logβ111 (MHL), Lu / logβ111 (MHL), Tb: ±3σ
Procedure: (§1) All potentiometric titrations were run using a Mettler Toledo T90 autotitrator equipped with an Orion Ross Semi-micro glass electrode with the junction stabilization solution changed to 5.0 M NaCl to prevent precipitation with perchlorate media. All titrations were performed under a hydrated nitrogen atmosphere. The forward titration measurements (acidic titrand, basic titrant) of H4octapa in nitrate electrolyte medium were performed as described previously due to the limited solubility of this ligand in a 2 M (Na^+/H^+)ClO4 medium. Acid dissociation constants of H4octapa in perchlorate electrolyte medium were also determined by titrating in reverse (basic titrand, acidic titrant) to alleviate the solubility concerns. Titrations of H4pypa-peg were performed in reduced-volume glass titration cups (10 mL nominal) due to the limited supply of this ligand. All potentiometric titrations were run in triplicate. The choice of using p[H^+] was explained in Heathman et al.[15], and the calibration of the p[H^+] scale utilized Gran analysis through titration of a strong acid with the base used in the potentiometric titrations[29]–[31]. Potentiometric titration data was modeled and analyzed using Hyperquad2013 to determine acid dissociation and metal complexation stability constants[32],[33].
The coordination of La^3+, Nd^3+, Eu^3+, Tb^3+, Dy^3+, Ho^3+, and Lu^3+ with H4octapa and H4pypa-peg was studied. Figures 4A, B show the potentiometric curves collected when Nd^3+ was titrated with H4octapa and H4pypa-peg, respectively. Both p[H^+] curves show the characteristic buffering region due to deprotonation of metal–ligand complexes when titrated with base. The experimental p[H^+] trend is best represented when considering the presence of MHL(aq) and ML^– complexes as generalized by Eqs. (4) and (5). The progressive formation of the metal complexes throughout the titration is illustrated by species distribution curves, also shown in Figs. 4A, B. The complex formation equilibria are described by the conditional stability constants, β101 and β111, listed in Table 3.

[2] = Potentiometric titration, acid dissociation constants; assay type: physicochemical
Procedure: as §1
Changes in hydrogen ion concentration were monitored using a glass electrode for a solution of H4octapa as either NaOH or HClO4 were titrated into the solutions. […] The experimental potentiometric curve collected for a forward titration of H4octapa in (Na^+/H^+)NO3 is presented in Fig. 3A, alongside the distribution curves for the identified HnL species. Following those studies, the acid/base conditions were reversed and octapa^4− was titrated in 2.0 M (Na^+/H^+)ClO4 using HClO4 (SI Figure S7). The potentiometric curves are well respresented by five proton dissociation equilibria. The calculated equilibrium constants correspond with the protonation reactions for two aliphatic amines, two pyridine nitrogens, and one carboxylate group with the protonation sequence described by Eq. (2). The acid dissociation constants (pKa = − log10Ka) for H4octapa are reported in Table 1 alongside previously reported values in the literature.
The experimental potentiometric titration curve and the distribution curves for the associated HnL species for H4pypa-peg are presented in Fig. 3B. […] For comparison, the protonation equilibria of H4edta were also studied in 2.0 M (Na^+/H^+)ClO4. The pKa values for H4edta are listed in Table 2 and collected potentiometric titration curves (forward and reverse) are presented in SI Figure S8. For H4pypa-peg coordination pocket the protonation of H9L^5+, H7L^3+, and H6L^2+ cannot be characterized using a glass electrode. The H6L^2+ species likely represents a protonated carboxylate group, while H5L^+ and H4L may describe the pyridinecarboxylate nitrogens. The equilibrium involving H3L^− likely describes the dissociation of the protonated pyridine nitrogen, while the two most basic species in this ligand (HL^3− and H2L^2−) are likely the bridging amines in the H4pypa-peg backbone. Equation (3) describes the protonation sequence for H4pypa-peg.3 H10-aL^+6-a⇆H9-aL^+5-a+H^+Ka=H^+·H9-aL^+5-a/H10-aL^+6-aa=1…9

[3] = aqueous 2.0 M (Na+/H+)ClO4 electrolyte solution, I = 2.0 M (Na+/H+)ClO4 at 20.0 °C, read-out: pKa H2L species
[4] = aqueous 2.0 M (Na+/H+)ClO4 electrolyte solution, I = 2.0 M (Na+/H+)ClO4 at 20.0 °C, read-out: pKa H3L species
[5] = aqueous 2.0 M (Na+/H+)ClO4 electrolyte solution, I = 2.0 M (Na+/H+)ClO4 at 20.0 °C, read-out: pKa H4L species
[6] = aqueous 2.0 M (Na+/H+)ClO4 electrolyte solution, I = 2.0 M (Na+/H+)ClO4 at 20.0 °C, read-out: pKa H5L species
[7] = aqueous 2.0 M (Na+/H+)ClO4 electrolyte solution, I = 2.0 M (Na+/H+)ClO4 at 20.0 °C, read-out: pKa HL species
[8] = aqueous 2.0 M (Na+/H+)ClO4 electrolyte solution, I = 2.0 M (Na+/H+)ClO4 at 20.0 °C, read-out: pKa H6L species

Compound | logβ101 (ML), Nd [1] | logβ111 (MHL), Nd [1] | logK111, Dy [1] | logK111, Eu [1] | logK111, Ho [1] | logK111, La [1] | logK111, Lu [1] | logK111, Nd [1] | logK111, Tb [1] | logβ101 (ML), Dy [1] | logβ101 (ML), Eu [1] | logβ101 (ML), Ho [1] | logβ101 (ML), La [1] | logβ101 (ML), Lu [1] | logβ101 (ML), Tb [1] | pKa [2, 3] | pKa [2, 4] | pKa [2, 5] | pKa [2, 6] | pKa [2, 7] | also measured
O=C(O)CN(CCN(CC(=O)O)Cc1cccc(C(=O)O)n1)Cc1cccc(C(=O)O)n1 [H4octapa, 6,6′-((ethane-1,2-diylbis–((carboxymethyl)azanediyl))bis–(methylene))dipicolinic acid] | 18.19 (1) | 19.92 (2) – | 1.28 (2) | 1.13 (4) | 0.53 (2) | 1.53 (4) | 1.69 (4) | 1.73 (2) – | 1.04 (7) | 18.48 (2) | 18.49 (2) | 18.57 (2) | 17.77 (2) | 17.97 (3) | 18.55 (2) | 5.57 | 3.82 | 3.18 | 1.63 | 8.41 | logβ111 (MHL), Dy [1]: 19.76 (1); logβ111 (MHL), Eu [1]: 19.62 (4); logβ111 (MHL), Ho [1]: 19.10 (1); logβ111 (MHL), La [1]: 19.30 (4); logβ111 (MHL), Lu [1]: 19.66 (4); logβ111 (MHL), Tb [1]: 19.59 (7); pKa ([2]; aqueous 2.0 M (Na+/H+)NO3 electrolyte solution, I = 2.0 M (Na+/H+)NO3 at 25.0 °C, read-out: pKa H2L2-): 5.27; pKa ([2]; aqueous 2.0 M (Na+/H+)NO3 electrolyte solution, I = 2.0 M (Na+/H+)NO3 at 25.0 °C, read-out: pKa H3L-): 3.63; pKa ([2]; aqueous 2.0 M (Na+/H+)NO3 electrolyte solution, I = 2.0 M (Na+/H+)NO3 at 25.0 °C, read-out: pKa H4L(aq)): 3; pKa ([2]; aqueous 2.0 M (Na+/H+)NO3 electrolyte solution, I = 2.0 M (Na+/H+)NO3 at 25.0 °C, read-out: pKa H5L+): 1.63; pKa ([2]; aqueous 2.0 M (Na+/H+)NO3 electrolyte solution, I = 2.0 M (Na+/H+)NO3 at 25.0 °C, read-out: pKa HL3-): 8.16
O=C(O)CN(Cc1cc(-c2cn(CCOCCOCCO)nn2)cc(CN(CC(=O)O)Cc2cccc(C(=O)O)n2)n1)Cc1cccc(C(=O)O)n1 [H4pypa-peg, 6,6'-((((4-(1-(2-(2-(2-hydroxyethoxy)ethoxy)ethyl)-1H-1,2,3-triazol-4-yl)pyridine-2,6-diyl)bis–(methylene))bis–((carboxymethyl)azanediyl))bis–(methylene)) dipicolinic acid] | 18.20 (2) | 20.43 (2) | 1.97 (2) | 1.96 (1) | 1.80 (4) | 2.32 (1) | 1.87 (5) | 2.22 (2) | 2.02 (2) | 20.05 (1) | 18.91 (1) | 20.50 (4) | 17.86 (1) | 20.72 (5) | 19.75 (2) | – | – | – | – | – | logβ111 (MHL), Dy [1]: 22.03 (2); logβ111 (MHL), Eu [1]: 20.87 (1); logβ111 (MHL), Ho [1]: 22.31 (4); logβ111 (MHL), La [1]: 20.18 (1); logβ111 (MHL), Lu [1]: 22.60 (5); logβ111 (MHL), Tb [1]: 21.77 (2); pKa ([2]; aqueous 2.0 M (Na+/H+)ClO4 electrolyte solution, I = 2.0 M (Na+/H+)ClO4 (Table 2), read-out: pKa H2L2-): 6.45; pKa ([2]; aqueous 2.0 M (Na+/H+)ClO4 electrolyte solution, I = 2.0 M (Na+/H+)ClO4 (Table 2), read-out: pKa H3L-): 3.92; pKa ([2]; aqueous 2.0 M (Na+/H+)ClO4 electrolyte solution, I = 2.0 M (Na+/H+)ClO4 (Table 2), read-out: pKa H4L(aq)): 3.37; pKa ([2]; aqueous 2.0 M (Na+/H+)ClO4 electrolyte solution, I = 2.0 M (Na+/H+)ClO4 (Table 2), read-out: pKa H5L+): 2.45; pKa ([2]; aqueous 2.0 M (Na+/H+)ClO4 electrolyte solution, I = 2.0 M (Na+/H+)ClO4 (Table 2), read-out: pKa H6L2+): 1.43; pKa ([2]; aqueous 2.0 M (Na+/H+)ClO4 electrolyte solution, I = 2.0 M (Na+/H+)ClO4 (Table 2), read-out: pKa HL3-): 7.44
O=C(O)CN(CCN(CCN(CC(=O)O)CC(=O)O)CC(=O)O)CCN(CC(=O)O)CC(=O)O [H6ttha, triethylenetetraamine-N,N,N',N'',N''',N'''-hexaacetic acid] | 21.78(2) | 25.42(2) | – | – | – | – | – | – | – | – | – | – | – | – | – | 8.67 | 6.27 | 4.12 | 2.7 | 9.48 | logβ121 (MH2L), Nd3+ ([1]; determined using potentiometry, I = 2.0 M (Na+/H+)ClO4 at 20.0 °C): 27.74(3); pKa [2, 8]: 2.19; pKa ([2]; aqueous 2.0 M (Na+/H+)ClO4 electrolyte solution, I = 2.0 M (Na+/H+)ClO4 at 20.0 °C, read-out: pKa H7L species): 1.86
O=C(O)CN(CCN(CC(=O)O)CC(=O)O)CCN(CC(=O)O)CC(=O)O [H5dtpa, diethylenetriamine-N,N,N',N'',N''-pentaacetic acid] | – | – | – | – | – | – | – | – | – | – | – | – | – | – | – | 8.31 | 5.57 | 4.38 | 2.53 | 9.5 | pKa [2, 8]: 2.41
